In ChEMBL document CHEMBL3046161, “Synthesis of potential antitubercular and antimicrobial s-triazine-based scaffolds via Suzuki cross-coupling reaction” (2013):
≈ marks a conversion by molar mass, not a printed value.

Legend:
Assay type in all cases: functional
Staphylococcus aureus [1] = test: Antibacterial activity against Staphylococcus aureus MTCC 96 assessed as growth inhibition after 24 hr by agar streak dilution method; settings: MTCC 96, 24 h
Klebsiella pneumoniae [2] = test: Antibacterial activity against Klebsiella pneumoniae MTCC 109 assessed as growth inhibition at 3.12 to 50 ug/mL after 24 hr by agar disk diffusion method
Proteus vulgaris [3] = test: Antibacterial activity against Proteus vulgaris MTCC 1771 assessed as growth inhibition at 3.12 to 50 ug/mL after 24 hr by agar disk diffusion method
Staphylococcus aureus [4] = test: Antibacterial activity against Staphylococcus aureus MTCC 96 assessed as growth inhibition at 3.12 to 50 ug/mL after 24 hr by agar disk diffusion method
Proteus vulgaris [5] = test: Antibacterial activity against Proteus vulgaris MTCC 1771 assessed as growth inhibition after 24 hr by agar streak dilution method; settings: MTCC 1771, 24 h
[6] = system: Mycobacterium tuberculosis; test: Antimycobacterial activity against Mycobacterium tuberculosis H37Rv assessed as growth inhibition measured within 10 days by BACTEC MGIT method; settings: 240 h
[7] = system: Mycobacterium tuberculosis; test: Antimycobacterial activity against Mycobacterium tuberculosis H37Rv assessed as growth inhibition after 12 to 28 days by Lowenstein and Jensen agar dilution method
Klebsiella pneumoniae [8] = test: Antibacterial activity against Klebsiella pneumoniae MTCC 109 assessed as growth inhibition after 24 hr by agar streak dilution method; settings: MTCC 109, 24 h
Shigella flexneri [9] = test: Antibacterial activity against Shigella flexneri MTCC 1457 assessed as growth inhibition after 24 hr by agar streak dilution method; settings: MTCC 1457, 24 h
Aspergillus fumigatus [10] = test: Antifungal activity against Aspergillus fumigatus MTCC 343 assessed as growth inhibition after 48 hr by agar streak dilution method; settings: MTCC 343, 48 h
Pseudomonas aeruginosa [11] = test: Antibacterial activity against Pseudomonas aeruginosa MTCC 741 assessed as growth inhibition at 3.12 to 50 ug/mL after 24 hr by agar disk diffusion method
Bacillus cereus [12] = test: Antibacterial activity against Bacillus cereus MTCC 430 assessed as growth inhibition after 24 hr by agar streak dilution method; settings: MTCC 430, 24 h
Salmonella typhi [13] = test: Antibacterial activity against Salmonella enterica subsp. enterica serovar Typhi MTCC 733 assessed as growth inhibition at 3.12 to 50 ug/mL after 24 hr by agar disk diffusion method
Aspergillus clavatus [14] = test: Antifungal activity against Aspergillus clavatus MTCC 1323 assessed as growth inhibition after 48 hr by agar streak dilution method; settings: MTCC 1323, 48 h
Candida albicans [15] = test: Antifungal activity against Candida albicans MTCC 183 assessed as growth inhibition after 48 hr by agar streak dilution method; settings: MTCC 183, 48 h
Escherichia coli [16] = test: Antibacterial activity against Escherichia coli MTCC 739 assessed as growth inhibition after 24 hr by agar streak dilution method; settings: MTCC 739, 24 h
Aspergillus clavatus [17] = test: Antifungal activity against Aspergillus clavatus MTCC 1323 assessed as growth inhibition at 3.12 to 50 ug/mL after 24 hr by agar disk diffusion method
Pseudomonas aeruginosa [18] = test: Antibacterial activity against Pseudomonas aeruginosa MTCC 741 assessed as growth inhibition after 24 hr by agar streak dilution method; settings: MTCC 741, 24 h
Aspergillus fumigatus [19] = test: Antifungal activity against Aspergillus fumigatus MTCC 343 assessed as growth inhibition at 3.12 to 50 ug/mL after 24 hr by agar disk diffusion method
[20] = system: Mycobacterium tuberculosis; test: Antimycobacterial activity against Mycobacterium tuberculosis H37Rv assessed as growth inhibition at MIC after 12 to 28 days by Lowenstein and Jensen agar dilution method
Salmonella typhi [21] = test: Antibacterial activity against Salmonella enterica subsp. enterica serovar Typhi MTCC 733 assessed as growth inhibition after 24 hr by agar streak dilution method; settings: MTCC 733, 24 h
Candida albicans [22] = test: Antifungal activity against Candida albicans MTCC 183 assessed as growth inhibition at 3.12 to 50 ug/mL after 24 hr by agar disk diffusion method
Aspergillus niger [23] = test: Antifungal activity against Aspergillus niger MTCC 282 assessed as growth inhibition after 48 hr by agar streak dilution method; settings: MTCC 282, 48 h
Shigella flexneri [24] = test: Antibacterial activity against Shigella flexneri MTCC 1457 assessed as growth inhibition at 3.12 to 50 ug/mL after 24 hr by agar disk diffusion method
Bacillus cereus [25] = test: Antibacterial activity against Bacillus cereus MTCC 430 assessed as growth inhibition at 3.12 to 50 ug/mL after 24 hr by agar disk diffusion method
Escherichia coli [26] = test: Antibacterial activity against Escherichia coli MTCC 739 assessed as growth inhibition at 3.12 to 50 ug/mL after 24 hr by agar disk diffusion method
Aspergillus niger [27] = test: Antifungal activity against Aspergillus niger MTCC 282 assessed as growth inhibition at 3.12 to 50 ug/mL after 24 hr by agar disk diffusion method

Compound: CC1CC(C)CN(c2nc(-c3ccc(NCC(=O)Nc4nc5ccc([N+](=O)[O-])cc5s4)cc3)nc(N3CC(C)CC(C)C3)n2)C1 (stereo not drawn)
- MIC (Staphylococcus aureus [1]): 12.5 µg/mL (≈ 19.8 µM)
- inhibition zone (IZ) (Klebsiella pneumoniae [2]): 18 mm
- inhibition zone (IZ) (Proteus vulgaris [3]): 19 mm
- inhibition zone (IZ) (Staphylococcus aureus [4]): 22 mm
- MIC (Proteus vulgaris [5]): 50 µg/mL (≈ 79.4 µM)
- MIC [6]: > 6.25 µg/mL
- MIC [7]: 50 µg/mL (≈ 79.4 µM)
- MIC (Klebsiella pneumoniae [8]): 50 µg/mL (≈ 79.4 µM)
- MIC (Shigella flexneri [9]): 50 µg/mL (≈ 79.4 µM)
- MIC (Aspergillus fumigatus [10]): 50 µg/mL (≈ 79.4 µM)
- inhibition zone (IZ) (Pseudomonas aeruginosa [11]): 18 mm
- MIC (Bacillus cereus [12]): 12.5 µg/mL (≈ 19.8 µM)
- inhibition zone (IZ) (Salmonella typhi [13]): 19 mm
- MIC (Aspergillus clavatus [14]): 25 µg/mL (≈ 39.7 µM)
- MIC (Candida albicans [15]): 50 µg/mL (≈ 79.4 µM)
- MIC (Escherichia coli [16]): 50 µg/mL (≈ 79.4 µM)
- inhibition zone (IZ) (Aspergillus clavatus [17]): 28 mm
- MIC (Pseudomonas aeruginosa [18]): 50 µg/mL (≈ 79.4 µM)
- inhibition zone (IZ) (Aspergillus fumigatus [19]): 22 mm
- growth inhibition (GI) [20]: 98%
- MIC (Salmonella typhi [21]): 50 µg/mL (≈ 79.4 µM)
- inhibition zone (IZ) (Candida albicans [22]): 16 mm
- MIC (Aspergillus niger [23]): 12.5 µg/mL (≈ 19.8 µM)
- inhibition zone (IZ) (Shigella flexneri [24]): 21 mm
- inhibition zone (IZ) (Bacillus cereus [25]): 26 mm
- inhibition zone (IZ) (Escherichia coli [26]): 18 mm
- inhibition zone (IZ) (Aspergillus niger [27]): 23 mm

Compound: CC1CC(C)CN(c2nc(-c3ccc(NCC(=O)Nc4nc5ccc(C#N)cc5s4)cc3)nc(N3CC(C)CC(C)C3)n2)C1 (stereo not drawn)
- MIC (Staphylococcus aureus [1]): 6.25 µg/mL (≈ 10.2 µM)
- inhibition zone (IZ) (Klebsiella pneumoniae [2]): 27 mm
- inhibition zone (IZ) (Proteus vulgaris [3]): 22 mm
- inhibition zone (IZ) (Staphylococcus aureus [4]): 24 mm
- MIC (Proteus vulgaris [5]): 25 µg/mL (≈ 41 µM)
- MIC [6]: > 6.25 µg/mL
- MIC [7]: 100 µg/mL (≈ 164 µM)
- MIC (Klebsiella pneumoniae [8]): 25 µg/mL (≈ 41 µM)
- MIC (Shigella flexneri [9]): 50 µg/mL (≈ 82 µM)
- MIC (Aspergillus fumigatus [10]): 50 µg/mL (≈ 82 µM)
- inhibition zone (IZ) (Pseudomonas aeruginosa [11]): 18 mm
- MIC (Bacillus cereus [12]): 50 µg/mL (≈ 82 µM)
- inhibition zone (IZ) (Salmonella typhi [13]): 18 mm
- MIC (Aspergillus clavatus [14]): 50 µg/mL (≈ 82 µM)
- MIC (Candida albicans [15]): > 50 µg/mL
- MIC (Escherichia coli [16]): 6.25 µg/mL (≈ 10.2 µM)
- inhibition zone (IZ) (Aspergillus clavatus [17]): 16 mm
- MIC (Pseudomonas aeruginosa [18]): 50 µg/mL (≈ 82 µM)
- inhibition zone (IZ) (Aspergillus fumigatus [19]): 22 mm
- growth inhibition (GI) [20]: 95%
- MIC (Salmonella typhi [21]): 50 µg/mL (≈ 82 µM)
- inhibition zone (IZ) (Candida albicans [22]): <10 mm
- MIC (Aspergillus niger [23]): 25 µg/mL (≈ 41 µM)
- inhibition zone (IZ) (Shigella flexneri [24]): 22 mm
- inhibition zone (IZ) (Bacillus cereus [25]): 22 mm
- inhibition zone (IZ) (Escherichia coli [26]): 25 mm
- inhibition zone (IZ) (Aspergillus niger [27]): 19 mm

Compound: Cc1ccc2nc(NC(=O)CNc3ccc(-c4nc(N5CC(C)CC(C)C5)nc(N5CC(C)CC(C)C5)n4)cc3)sc2c1 (stereo not drawn)
- MIC (Staphylococcus aureus [1]): 50 µg/mL (≈ 83.5 µM)
- inhibition zone (IZ) (Klebsiella pneumoniae [2]): 16 mm
- inhibition zone (IZ) (Proteus vulgaris [3]): 20 mm
- inhibition zone (IZ) (Staphylococcus aureus [4]): 15 mm
- MIC (Proteus vulgaris [5]): 50 µg/mL (≈ 83.5 µM)
- MIC [6]: > 6.25 µg/mL
- MIC [7]: 250 µg/mL (≈ 417 µM)
- MIC (Klebsiella pneumoniae [8]): 50 µg/mL (≈ 83.5 µM)
- MIC (Shigella flexneri [9]): 50 µg/mL (≈ 83.5 µM)
- MIC (Aspergillus fumigatus [10]): > 50 µg/mL
- inhibition zone (IZ) (Pseudomonas aeruginosa [11]): 15 mm
- MIC (Bacillus cereus [12]): 50 µg/mL (≈ 83.5 µM)
- inhibition zone (IZ) (Salmonella typhi [13]): <10 mm
- MIC (Aspergillus clavatus [14]): > 50 µg/mL
- MIC (Candida albicans [15]): 50 µg/mL (≈ 83.5 µM)
- MIC (Escherichia coli [16]): 50 µg/mL (≈ 83.5 µM)
- inhibition zone (IZ) (Aspergillus clavatus [17]): <10 mm
- MIC (Pseudomonas aeruginosa [18]): 50 µg/mL (≈ 83.5 µM)
- inhibition zone (IZ) (Aspergillus fumigatus [19]): <10 mm
- growth inhibition (GI) [20]: 97%
- MIC (Salmonella typhi [21]): 50 µg/mL (≈ 83.5 µM)
- inhibition zone (IZ) (Candida albicans [22]): 13 mm
- MIC (Aspergillus niger [23]): 50 µg/mL (≈ 83.5 µM)
- inhibition zone (IZ) (Shigella flexneri [24]): 12 mm
- inhibition zone (IZ) (Bacillus cereus [25]): 19 mm
- inhibition zone (IZ) (Escherichia coli [26]): 16 mm
- inhibition zone (IZ) (Aspergillus niger [27]): <10 mm

Compound: COc1ccc2nc(NC(=O)CNc3ccc(-c4nc(N5CC(C)CC(C)C5)nc(N5CC(C)CC(C)C5)n4)cc3)sc2c1 (stereo not drawn)
- MIC (Staphylococcus aureus [1]): 1.56 µg/mL (≈ 2.54 µM)
- inhibition zone (IZ) (Klebsiella pneumoniae [2]): 23 mm
- inhibition zone (IZ) (Proteus vulgaris [3]): 27 mm
- inhibition zone (IZ) (Staphylococcus aureus [4]): 26 mm
- MIC (Proteus vulgaris [5]): 6.25 µg/mL (≈ 10.2 µM)
- MIC [6]: > 6.25 µg/mL
- MIC [7]: 12.5 µg/mL (≈ 20.3 µM)
- MIC (Klebsiella pneumoniae [8]): 50 µg/mL (≈ 81.3 µM)
- MIC (Shigella flexneri [9]): 12.5 µg/mL (≈ 20.3 µM)
- MIC (Aspergillus fumigatus [10]): > 50 µg/mL
- inhibition zone (IZ) (Pseudomonas aeruginosa [11]): 20 mm
- MIC (Bacillus cereus [12]): 12.5 µg/mL (≈ 20.3 µM)
- inhibition zone (IZ) (Salmonella typhi [13]): 20 mm
- MIC (Aspergillus clavatus [14]): 50 µg/mL (≈ 81.3 µM)
- MIC (Candida albicans [15]): 12.5 µg/mL (≈ 20.3 µM)
- MIC (Escherichia coli [16]): 25 µg/mL (≈ 40.7 µM)
- inhibition zone (IZ) (Aspergillus clavatus [17]): 23 mm
- MIC (Pseudomonas aeruginosa [18]): 50 µg/mL (≈ 81.3 µM)
- inhibition zone (IZ) (Aspergillus fumigatus [19]): <10 mm
- growth inhibition (GI) [20]: 98%
- MIC (Salmonella typhi [21]): 50 µg/mL (≈ 81.3 µM)
- inhibition zone (IZ) (Candida albicans [22]): 25 mm
- MIC (Aspergillus niger [23]): 25 µg/mL (≈ 40.7 µM)
- inhibition zone (IZ) (Shigella flexneri [24]): 25 mm
- inhibition zone (IZ) (Bacillus cereus [25]): 25 mm
- inhibition zone (IZ) (Escherichia coli [26]): 20 mm
- inhibition zone (IZ) (Aspergillus niger [27]): 19 mm
